Assay results from US20110144014A1, “CYTOKINE RECEPTOR MODULATORS AND USES THEREOF” (CENTRE HOSPITALIER UNIVERSITAIRE SAINTE-JUSTINE, priority 2005, published 2011).
pEC50, pIC50: −log10 of the molar value. Where a SMILES comes first, the peptide text is derived from it. Where no end group is shown, it is not given here. [ ]: non-standard residue; d: D form.

Assays:
[1] = target: T1, IGF-1R (Homo sapiens, UniProt P08069); test: IGF-1-induced proliferation of NIH3T3 cells transfected with human IGF-1R cDNA (3H-thymidine); format: cell-based; set-up: expressed in transfected cells; host or cells: NIH3T3; details: NIH3T3-IGF-1R cells; IGF-1 50 ng/ml
Experimental: Derivatives of APG-203 and APG-206 peptides were truncated to determine peptide regions important for activity. Peptides were assayed for efficacy and potency with an ^3H-thymidine incorporation assay. In short, the ^3H-thymidine incorporation proliferation assay was performed in NIH3T3 cells transfected with human IGF-1R cDNA in presence of IGF-1 50 ng/ml and different concentrations of peptides.
Target sequence in this assay (P08069 31-1367): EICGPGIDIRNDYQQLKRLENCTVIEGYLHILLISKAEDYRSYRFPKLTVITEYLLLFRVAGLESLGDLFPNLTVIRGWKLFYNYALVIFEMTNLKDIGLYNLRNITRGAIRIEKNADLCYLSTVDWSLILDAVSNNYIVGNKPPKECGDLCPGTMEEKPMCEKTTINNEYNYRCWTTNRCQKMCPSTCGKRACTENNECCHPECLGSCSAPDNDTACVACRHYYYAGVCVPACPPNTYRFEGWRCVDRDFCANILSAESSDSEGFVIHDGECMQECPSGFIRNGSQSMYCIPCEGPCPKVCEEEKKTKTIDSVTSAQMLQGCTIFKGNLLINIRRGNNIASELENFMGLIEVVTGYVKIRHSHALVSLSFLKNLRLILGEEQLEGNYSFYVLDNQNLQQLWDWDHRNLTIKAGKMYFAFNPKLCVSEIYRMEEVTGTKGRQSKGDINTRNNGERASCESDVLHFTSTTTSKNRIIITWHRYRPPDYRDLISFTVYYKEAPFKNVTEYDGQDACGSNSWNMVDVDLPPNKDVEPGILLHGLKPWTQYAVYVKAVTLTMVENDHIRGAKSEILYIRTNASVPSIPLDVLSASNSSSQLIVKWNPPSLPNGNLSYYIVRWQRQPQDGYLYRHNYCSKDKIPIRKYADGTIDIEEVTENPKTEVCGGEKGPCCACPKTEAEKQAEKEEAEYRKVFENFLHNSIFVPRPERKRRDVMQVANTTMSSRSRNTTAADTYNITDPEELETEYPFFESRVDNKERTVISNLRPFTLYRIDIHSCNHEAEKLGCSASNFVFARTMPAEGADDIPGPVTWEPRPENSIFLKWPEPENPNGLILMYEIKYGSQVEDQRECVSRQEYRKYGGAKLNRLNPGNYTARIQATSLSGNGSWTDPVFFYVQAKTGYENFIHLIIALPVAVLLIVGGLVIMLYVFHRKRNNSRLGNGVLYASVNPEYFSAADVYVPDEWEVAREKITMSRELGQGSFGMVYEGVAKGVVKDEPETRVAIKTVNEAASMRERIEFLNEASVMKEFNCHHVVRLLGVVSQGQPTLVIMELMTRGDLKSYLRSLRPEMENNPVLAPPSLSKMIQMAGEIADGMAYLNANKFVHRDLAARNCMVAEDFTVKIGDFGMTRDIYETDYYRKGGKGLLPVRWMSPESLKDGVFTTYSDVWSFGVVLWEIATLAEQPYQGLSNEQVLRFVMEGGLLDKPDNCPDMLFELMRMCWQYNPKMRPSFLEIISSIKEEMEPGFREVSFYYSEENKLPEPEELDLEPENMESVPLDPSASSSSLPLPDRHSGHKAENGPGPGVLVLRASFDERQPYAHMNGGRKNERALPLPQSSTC

[2] = target: T1, IGF-1R; test: IGF-1 induced proliferation of MCF-7 breast carcinoma cells (3H-thymidine); format: cell-based; set-up: MCF-7 breast carcinoma cells; endogenous in cells; host or cells: MCF-7; details: for Emax / inhibition: MCF7; for inhibition: read-out: efficacy, inhibition of MCF-7 proliferation
Experimental: We also tested the effect IGF-1R antagonist peptides on IGF-1 induced proliferation in other cancer cell types (MCF-7 breast carcinoma cells, HepG2 hepatocarcinoma cells, and MDA-MB-231 breast adenocarcinoma cells). Different cancer cells were pre-incubated (45 min.) with different concentrations of peptides prior to stimulation with IGF-1 (50 ng/ml) (37° C.) for 24 hours; fetal calf serum was omitted 24 hours prior to stimulation with IGF-1 to avoid proliferative effects by other mitotic agents. ^3H-thymidine (1 μCi/ml) was then added for 24 hours, after which cells were washed three times with 5% cold TCA and lysed with 0.1N NaOH/0.1% Triton X-100. Radioactivity was measured with a scintillation counter. Experiments were repeated 3 times in duplicates (FIG. 15). […]
Target sequence in this assay (P08069 31-736 limits assumed): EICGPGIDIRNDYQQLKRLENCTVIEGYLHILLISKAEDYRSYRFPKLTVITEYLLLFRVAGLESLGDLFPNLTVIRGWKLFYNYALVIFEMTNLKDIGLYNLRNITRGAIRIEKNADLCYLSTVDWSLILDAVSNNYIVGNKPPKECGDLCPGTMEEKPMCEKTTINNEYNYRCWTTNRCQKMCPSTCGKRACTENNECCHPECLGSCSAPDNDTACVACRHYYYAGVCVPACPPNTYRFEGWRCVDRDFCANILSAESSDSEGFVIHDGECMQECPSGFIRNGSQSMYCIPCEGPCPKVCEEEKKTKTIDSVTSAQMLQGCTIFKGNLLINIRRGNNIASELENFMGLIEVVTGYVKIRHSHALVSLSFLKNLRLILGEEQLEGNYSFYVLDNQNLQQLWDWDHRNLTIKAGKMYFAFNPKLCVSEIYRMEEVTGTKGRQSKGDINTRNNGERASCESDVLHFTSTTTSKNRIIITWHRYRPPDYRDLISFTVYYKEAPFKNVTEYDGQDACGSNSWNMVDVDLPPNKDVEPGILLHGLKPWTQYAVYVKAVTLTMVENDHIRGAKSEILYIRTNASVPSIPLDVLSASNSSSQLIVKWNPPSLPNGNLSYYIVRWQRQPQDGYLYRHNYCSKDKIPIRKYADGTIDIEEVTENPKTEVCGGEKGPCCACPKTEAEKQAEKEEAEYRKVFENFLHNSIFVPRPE
Target sequence in this assay (P08069 741-1367 limits assumed): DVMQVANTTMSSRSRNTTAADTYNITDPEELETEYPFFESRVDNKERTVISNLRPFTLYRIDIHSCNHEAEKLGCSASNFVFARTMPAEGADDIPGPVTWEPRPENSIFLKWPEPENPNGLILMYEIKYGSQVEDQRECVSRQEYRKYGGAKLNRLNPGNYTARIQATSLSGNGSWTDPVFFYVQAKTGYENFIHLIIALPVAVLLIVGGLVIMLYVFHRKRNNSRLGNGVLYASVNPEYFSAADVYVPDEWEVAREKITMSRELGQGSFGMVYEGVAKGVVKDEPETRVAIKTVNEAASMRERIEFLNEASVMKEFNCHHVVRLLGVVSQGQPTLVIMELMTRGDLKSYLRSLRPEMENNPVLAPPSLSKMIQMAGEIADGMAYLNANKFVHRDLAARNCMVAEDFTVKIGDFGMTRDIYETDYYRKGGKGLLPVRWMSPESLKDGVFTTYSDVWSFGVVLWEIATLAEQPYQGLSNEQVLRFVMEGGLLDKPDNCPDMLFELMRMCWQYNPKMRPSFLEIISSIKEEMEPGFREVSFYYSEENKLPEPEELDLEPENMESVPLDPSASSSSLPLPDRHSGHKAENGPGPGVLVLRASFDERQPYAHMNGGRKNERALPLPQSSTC

[3] = target: T1, IGF-1R; test: IGF-1 induced proliferation of MDA-MB-231 breast adenocarcinoma cells (3H-thymidine); format: cell-based; set-up: MDA-MB-231 breast adenocarcinoma cells; endogenous in cells; host or cells: MDA-MB-231; details: for pEC50: read-out: EC50, in vitro cell proliferation assay; for Emax: MDA-MB-231, read-out: Emax, in vitro cell proliferation assay
Experimental: (§1) We also tested the effect IGF-1R antagonist peptides on IGF-1 induced proliferation in other cancer cell types (MCF-7 breast carcinoma cells, HepG2 hepatocarcinoma cells, and MDA-MB-231 breast adenocarcinoma cells). Different cancer cells were pre-incubated (45 min.) with different concentrations of peptides prior to stimulation with IGF-1 (50 ng/ml) (37° C.) for 24 hours; fetal calf serum was omitted 24 hours prior to stimulation with IGF-1 to avoid proliferative effects by other mitotic agents. ^3H-thymidine (1 μCi/ml) was then added for 24 hours, after which cells were washed three times with 5% cold TCA and lysed with 0.1N NaOH/0.1% Triton X-100. Radioactivity was measured with a scintillation counter. Experiments were repeated 3 times in duplicates (FIG. 15).
Target sequence in this assay (P08069 31-736 limits assumed): as the sequence (P08069 31-736 limits assumed) above
Target sequence in this assay (P08069 741-1367 limits assumed): as the sequence (P08069 741-1367 limits assumed) above

[4] = target: T1, IGF-1R; test: IGF-1 induced proliferation of A549 carcinoma cells (3H-thymidine); format: cell-based; set-up: endogenous in cells; host or cells: A549
Experimental: The proliferation induced by IGF-1 was measured in A549 carcinoma cells in the presence of peptides APG201; APG202 and APG204 and of IGF-1 (10 ng/ml-FIG. 8A) and (1 ng/ml-FIG. 8B) pursuant to the incorporated tritiated thymidine method. The cells were preincubated at 37° C. with the different peptides at different concentrations, namely 10^−7, 10^−6 and 10^−5M. The cells were then incubated with IGF-1 (10 ng/ml or 1 ng/ml) for 24 hours and contacted with ^3H-Thymidine for 24 hours, washed, and lysed. Radioactivity levels were measured with a scintillation counter.
Target sequence in this assay (P08069 31-736 limits assumed): as the sequence (P08069 31-736 limits assumed) above
Target sequence in this assay (P08069 741-1367 limits assumed): as the sequence (P08069 741-1367 limits assumed) above

[5] = test system: VEGFR2 (Flk-1); test: VEGF induced proliferation of microvascular endothelial cells (3H-thymidine); format: cell-based, porcine; details: VEGF 2 ng/ml
Experimental: (§2) To determine the efficient and non-cytotoxic concentration of VEGF to use in the assay, a dose-response curve of VEGF was generated in two types of cells, namely microvascular endothelial cells and pulmonary artery endothelial cells (PAEC) that had been transfected with the Flk-1 gene. The proliferation was then measured in those two types of cells in the presence of peptides 2.1, 2.2 and 2.3 and of VEGF (2 ng/ml) pursuant to the incorporated tritiated thymidine method. The cells were preincubated at 37° C. with the different peptides at different concentrations. They were incubated with VEGF (2 ng/ml) for 24 hours. The cells were contacted with ^3H-Thymidine for 24 hours, washed and lysed. The radioactivity was measured with a scintillation counter.

[6] = target: T2, VEGFR2 (Flk-1) (Homo sapiens, UniProt P35968); test: VEGF induced proliferation of PAEC transfected with the Flk-1 gene (3H-thymidine); format: cell-based; details: VEGF 2 ng/ml
T2 construct: expressed in transfected cells; host or cells: pulmonary artery endothelial cells (PAEC)
Experimental: as §2

[7] = test system: neovascularization in rat retinas; test: Ischemic retinopathy model; format: in vivo; details: rat pups, 80% O2 then normoxia; intravitreal, 10 μM final
Experimental: The efficiency of the selected peptides was verified in vivo in a ischemic retinopathy model, a phenomena highly dependent on VEGF activation. Rat pups were exposed to 80% O2 followed by a period of normoxia (21% O2). The peptides were injected at a final concentration of 10 μM in the vitreous body. The retinas were then retrieved, colored with the ADPase method and mounted on slides. Photographs of the retinas were taken with a microscope linked to a computer and the vascular density was evaluated with the Imagepro software.

[8] = target: T3, IGF-1R (Rattus norvegicus, UniProt P24062); test: Ex vivo IGF-1-induced vasorelaxation of rat aorta; details: IGF-1 25 ng/ml; phenylephrine pre-constriction; read-out: Emax, inhibition of ex vivo IGF-1-induced vasorelaxation of rat aorta
T3 construct: from tissue; host or cells: aorta
T3 sequence (P24062 31-1370): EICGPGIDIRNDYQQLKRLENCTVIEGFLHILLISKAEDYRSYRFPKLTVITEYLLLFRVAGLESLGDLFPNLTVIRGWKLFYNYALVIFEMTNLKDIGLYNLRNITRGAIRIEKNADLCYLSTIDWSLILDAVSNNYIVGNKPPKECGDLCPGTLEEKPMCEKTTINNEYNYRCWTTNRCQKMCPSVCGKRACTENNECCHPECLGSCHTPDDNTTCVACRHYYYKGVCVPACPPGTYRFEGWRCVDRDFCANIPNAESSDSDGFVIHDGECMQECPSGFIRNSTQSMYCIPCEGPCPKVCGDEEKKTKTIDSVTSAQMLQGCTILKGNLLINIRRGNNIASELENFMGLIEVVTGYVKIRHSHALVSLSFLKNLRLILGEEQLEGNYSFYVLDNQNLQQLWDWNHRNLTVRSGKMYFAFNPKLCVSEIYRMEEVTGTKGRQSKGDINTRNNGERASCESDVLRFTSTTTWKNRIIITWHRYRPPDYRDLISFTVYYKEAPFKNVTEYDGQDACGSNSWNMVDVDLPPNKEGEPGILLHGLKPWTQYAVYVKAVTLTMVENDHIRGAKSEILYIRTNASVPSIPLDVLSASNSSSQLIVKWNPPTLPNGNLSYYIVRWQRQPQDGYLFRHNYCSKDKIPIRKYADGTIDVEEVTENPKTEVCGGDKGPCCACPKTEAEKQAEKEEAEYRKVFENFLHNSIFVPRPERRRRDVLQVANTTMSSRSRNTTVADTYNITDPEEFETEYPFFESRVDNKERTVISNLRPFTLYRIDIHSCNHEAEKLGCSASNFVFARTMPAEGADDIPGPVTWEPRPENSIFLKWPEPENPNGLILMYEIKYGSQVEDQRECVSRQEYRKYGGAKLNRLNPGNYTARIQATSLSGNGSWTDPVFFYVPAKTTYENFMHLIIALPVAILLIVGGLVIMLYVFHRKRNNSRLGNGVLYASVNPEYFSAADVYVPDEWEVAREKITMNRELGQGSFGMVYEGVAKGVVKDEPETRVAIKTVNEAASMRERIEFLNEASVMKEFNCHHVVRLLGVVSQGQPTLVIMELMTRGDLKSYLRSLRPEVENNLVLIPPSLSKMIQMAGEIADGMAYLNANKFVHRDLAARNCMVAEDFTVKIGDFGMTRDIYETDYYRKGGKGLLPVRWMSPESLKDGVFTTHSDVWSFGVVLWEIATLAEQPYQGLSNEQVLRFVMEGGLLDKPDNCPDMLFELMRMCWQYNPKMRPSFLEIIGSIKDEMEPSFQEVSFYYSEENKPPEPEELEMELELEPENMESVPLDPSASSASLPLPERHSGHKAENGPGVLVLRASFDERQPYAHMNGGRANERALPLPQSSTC
Experimental: Aortas were first incubated with different concentrations of peptides and phenylephrine to induce aorta constriction. IGF-1 (25 ng/ml) was then added to induce vasorelaxation. The results are expressed relative to a control aorta not incubated with the peptides. Vascular diameter was measured using a digital image analyzer. Vascular diameter was recorded before and after topical application of pre-constricting agent. After stabilization of the preparation, the ligand (IGF-1, 25 ng/ml) was added until stable vasodilation was detected. Peptides were subsequently added at different concentrations from 10^−8 to 10^−6 M. Reversal of vasodilatation was visualized and measured as described, for example, by Hou et al. (Am. J. Physiol. Regul. Integr. Comp. Physiol. 284:R928-R935 (2003)), Hou et al. (Stroke 31:516-524; discussion 525 (2000)), and Hou et al. (Am. J. Physiol. Regul. Integr. Comp. Physiol. 281:R391-R400 (2001)). Triplicate measurements were conducted on 2 animals.

[9] = target: T1, IGF-1R; test: IGF-1-induced tyrosine autophosphorylation of IGF-1R (Western Blot); format: cell-based; details: peptides 10^−6M, 45 min; IGF-1 50 ng/ml; read-out: inhibition of IGF-1-induced phosphorylation
Experimental: Cells were incubated with anti-IGF-1R peptides (10^−6M) for 45 minutes and with IGF-1 at 50 ng/ml for either 15 minutes or 5 minutes. Western Blots (phosphorylated tyrosine antibody and IGF-1R antibody) were performed in non-denaturing conditions on total cell lysates (FIG. 17).
Target sequence in this assay (P08069 31-1367, species assumed): as the sequence (P08069 31-1367) above

[10] = target: T1, IGF-1R; test: IGF-1 induced proliferation of HepG2 hepatocarcinoma cells (3H-thymidine); format: cell-based; set-up: HepG2 hepatocarcinoma cells; endogenous in cells; host or cells: HepG2; details: for Emax: read-out: Emax, in vitro cell proliferation assay
Experimental: as §1
Target sequence in this assay (P08069 31-736 limits assumed): as the sequence (P08069 31-736 limits assumed) above
Target sequence in this assay (P08069 741-1367 limits assumed): as the sequence (P08069 741-1367 limits assumed) above

[11] = MCF-7 (breast cancer) cells, Table 5, read-out: Emax
[12] = MCF-7, IGF-1 50 ng/ml, read-out: Emax, in vitro cell proliferation assay
[13] = A549, IGF-1 10 ng/ml or 1 ng/ml

Row | Molecule | Emax [1] [%] | Emax ([3]; MB-MDA-231, IGF-1 50 ng/ml) [%] | Emax [2, 12] [%] | inhibition ([2]; IGF-1 50 ng/ml) [%] | Emax [8] [%] | other results
1 | KERTVLS [APG-206.5, KERTVLS] | 75 |  |  |  |  | Emax [2, 11]: 100%
2 | CC(C)C[C@@H](NC(=O)[C@H](N)CO)C(=O)N[C@H](Cc1ccccc1)C(=O)N[C@@H](C(=O)N1CCC[C@@H]1C(=O)N[C@H](CCCNC(=N)N)C(=O)N1CCC[C@@H]1C(=O)N[C@H](CCC(=O)O)C(=O)N[C@H](CCCNC(=N)N)C(=O)N[C@H](CCCCN)C(=O)O)C(C)C [APG-201] (H-[dS][dL][dF][dV][dP][dR][dP][dE][dR][dK]-OH; N-terminus and C-terminus assumed) |  | 100 | 20 |  |  | potency in MDA-MB-231 ([3]; ER insensitive cells): nanomolar potencies; pEC50 ([3]; MB-MDA-231, IGF-1 50 ng/ml): 10.00; pEC50 [4]: 6.00; IGF-1 induced proliferation [4, 13]: completely abrogated
3 | CC(C)C[C@@H](NC(=O)[C@@H](CCCNC(=N)N)NC(=O)[C@H](NC(=O)[C@@H](CCCNC(=N)N)NC(=O)[C@@H](CCC(=O)O)NC(=O)CNC(=O)[C@H](NC(=O)[C@H](NC(=O)[C@@H](C)NC(=O)[C@H](N)CCC(=O)O)[C@H](C)O)C(C)C)C(C)C)C(=O)O [Peptide 2.2] (H-[dE][dA][dT][dV]G[dE][dR][dV][dR][dL]-OH; N-terminus and C-terminus assumed) |  |  |  |  |  | VEGF induced proliferation [5]: completely abrogated; pEC50 [6]: 5.05; induced neovascularization [7]: most effective inhibitor of neovascularization
4 | ENFLHLLLA [APG-205] |  | 100 | 60 | ≤ 90 | 25 | 
5 | CC(C)C[C@@H](NC(=O)[C@H](NC(=O)[C@@H](CC(=O)O)NC(=O)[C@@H](CO)NC(=O)[C@H](N)CCC(=O)O)C(C)C)C(=O)N[C@H](Cc1c[nH]cn1)C(=O)N[C@H](Cc1ccccc1)C(=O)N[C@@H](C(=O)N[C@H](CO)C(=O)N[C@@H](C(=O)O)[C@H](C)O)[C@H](C)O [APG-202] (H-[dE][dS][dD][dV][dL][dH][dF][dT][dS][dT]-OH; N-terminus and C-terminus assumed) |  |  | 20 |  |  | EC50, in vitro cell proliferation assay ([3]; MB-MDA-231, IGF-1 50 ng/ml): Not active; IGF-1 induced proliferation [4, 13]: completely abrogated; pEC50 ([4]; A549, IGF-1 10 ng/ml or 1 ng/ml, read-out: EC50, IGF-1 induced proliferation): 8.00
6 | ERTVLSNL [APG-206.7] | 100 |  |  |  |  | Emax [2, 11]: 90%
7 | IRKYADGTI [APG-204] |  | 100 | 90 | ≤ 90 | 25 | inhibition at 1 µM [9]: 30%
8 | TVLSNL [APG-206.9, TVLSNL] | 90 |  |  |  |  | pIC50 [1]: 7.70
9 | RTNASVPSI [APG-203] |  | 100 | 45 | ≤ 90 | 50 | pEC50 ([3]; MB-MDA-231, IGF-1 50 ng/ml): 10.00; pEC50 ([2]; IGF-1 50 ng/ml, read-out: potency, inhibition of MCF-7 proliferation): 7.22 to 10.00; efficacy, inhibition of HepG2 proliferation [10]: 50%; pEC50 ([10]; HepG2, IGF-1 50 ng/ml, read-out: EC50, in vitro cell proliferation assay): > 10.00; Emax ([10]; HepG2, IGF-1 50 ng/ml): 100%
10 | KERTVISNLR [APG-206] |  |  | 60 | ≤ 90 | 75 | inhibition at 1 µM [9]: > 70%; Emax ([10]; HepG2, IGF-1 50 ng/ml): 100%
